Results from patent US11208468B2, “Methods and compositions for treating melanoma” (The Wistar Institute of Anatomy and Biology, priority 2016, dated 2021).

System: melanoma patient PBMC samples WM35, WM3457 and 3451
Assay: Proliferative response, 3HTdR incorporation assay with peptide-pulsed monocytes
Assay type: cell-based, human
Conditions: monocytes pulsed 8 hours with 25 μM peptide, cultured with PBMC for 5 days; each sample assayed
Experimental: The peptides were screened for T-helper sequences (Th): Peptide P8 is amino acids residues 608-622 of BRAF, i.e., […] (SEQ ID NO: 15). Peptide P9 is amino acids residues […] of BRAF, i.e., […] (SEQ ID NO: 16). Peptide P10 is amino acids residues […] of BRAF, i.e., […] (SEQ ID NO: 17). These peptides bind to HLA-DR alleles using computer algorithms, as disclosed in Example 1 below. Proliferative responses were determined by standard ^3HTdR incorporation assay.
A number of such peptides were assayed as follows: Adherent monocytes (5×10^4/well) were pulsed for 8 hours with synthetic peptides (25 μM): Peptide 8 (SEQ ID NO:15), Peptide 9 (SEQ ID NO:16), and Peptide 10 (SEQ ID NO: 17). At the end of incubation, excess peptides were removed and the monocytes were cultured with one of three melanoma patient PBMC samples labeled WM35, WM3457 and 3451 (1×10^5) for 5 days.
Data are expressed as mean cpm (triplicate determinations) plus SD (bar) of ^3HTdR incorporation.

| Sequence | Proliferative response (3HTdR incorporation, mean cpm) versus control peptide |
| --- | --- |
| SHQFEQLSGSILWHA (listed as Homo sapiens) [Peptide 8] | Significantly (p<0.01) different values compared to control |
| EDLTVKIGDFGLATV (listed as Homo sapiens) [Peptide 9] | Significantly (p<0.01) different values compared to control |
